According to publication PMC3574212 (Journal of medicinal chemistry, 2013):
Entries after “also recorded” stand apart in the source; their conditions may differ.

Key:
EPAC2 [1] = molecular target: T1, EPAC2 (Mus musculus, UniProt Q9EQZ6); test: 8-NBD-cAMP competition binding assay; details: for Relative Potency (RA): RA = IC50, cAMP/ IC50, compound
T1 sequence (Q9EQZ6 1-1011): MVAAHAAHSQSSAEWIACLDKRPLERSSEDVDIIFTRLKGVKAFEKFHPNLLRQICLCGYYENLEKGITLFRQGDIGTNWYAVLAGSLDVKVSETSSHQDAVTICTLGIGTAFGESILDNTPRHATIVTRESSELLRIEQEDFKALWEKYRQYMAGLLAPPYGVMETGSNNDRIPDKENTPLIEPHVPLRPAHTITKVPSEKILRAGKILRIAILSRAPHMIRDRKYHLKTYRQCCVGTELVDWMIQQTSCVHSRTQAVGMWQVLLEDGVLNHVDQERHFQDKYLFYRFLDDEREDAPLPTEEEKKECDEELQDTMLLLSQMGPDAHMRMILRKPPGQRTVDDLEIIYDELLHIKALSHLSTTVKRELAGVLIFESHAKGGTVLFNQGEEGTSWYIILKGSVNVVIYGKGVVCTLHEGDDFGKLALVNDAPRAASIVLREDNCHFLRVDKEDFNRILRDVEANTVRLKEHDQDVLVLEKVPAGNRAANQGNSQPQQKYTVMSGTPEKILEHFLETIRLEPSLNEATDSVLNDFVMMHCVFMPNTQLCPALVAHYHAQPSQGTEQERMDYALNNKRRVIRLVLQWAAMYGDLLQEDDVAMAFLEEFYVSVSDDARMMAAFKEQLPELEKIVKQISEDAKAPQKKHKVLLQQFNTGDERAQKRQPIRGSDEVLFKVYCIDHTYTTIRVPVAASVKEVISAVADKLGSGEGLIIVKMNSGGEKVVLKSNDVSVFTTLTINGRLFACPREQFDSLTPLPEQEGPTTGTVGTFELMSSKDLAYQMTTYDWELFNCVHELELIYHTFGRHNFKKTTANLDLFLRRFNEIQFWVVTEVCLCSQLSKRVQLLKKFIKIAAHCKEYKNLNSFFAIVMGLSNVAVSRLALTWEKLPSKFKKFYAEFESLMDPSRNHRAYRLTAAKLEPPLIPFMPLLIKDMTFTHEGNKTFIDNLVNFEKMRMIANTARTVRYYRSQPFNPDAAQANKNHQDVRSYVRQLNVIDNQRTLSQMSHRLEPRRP

EPAC1 [2] = molecular target: T2, EPAC1 (Homo sapiens, UniProt O95398); details: cAMP-mediated EPAC1 GEF activity; ref 18b; cited from earlier work
T2 sequence (O95398 1-923): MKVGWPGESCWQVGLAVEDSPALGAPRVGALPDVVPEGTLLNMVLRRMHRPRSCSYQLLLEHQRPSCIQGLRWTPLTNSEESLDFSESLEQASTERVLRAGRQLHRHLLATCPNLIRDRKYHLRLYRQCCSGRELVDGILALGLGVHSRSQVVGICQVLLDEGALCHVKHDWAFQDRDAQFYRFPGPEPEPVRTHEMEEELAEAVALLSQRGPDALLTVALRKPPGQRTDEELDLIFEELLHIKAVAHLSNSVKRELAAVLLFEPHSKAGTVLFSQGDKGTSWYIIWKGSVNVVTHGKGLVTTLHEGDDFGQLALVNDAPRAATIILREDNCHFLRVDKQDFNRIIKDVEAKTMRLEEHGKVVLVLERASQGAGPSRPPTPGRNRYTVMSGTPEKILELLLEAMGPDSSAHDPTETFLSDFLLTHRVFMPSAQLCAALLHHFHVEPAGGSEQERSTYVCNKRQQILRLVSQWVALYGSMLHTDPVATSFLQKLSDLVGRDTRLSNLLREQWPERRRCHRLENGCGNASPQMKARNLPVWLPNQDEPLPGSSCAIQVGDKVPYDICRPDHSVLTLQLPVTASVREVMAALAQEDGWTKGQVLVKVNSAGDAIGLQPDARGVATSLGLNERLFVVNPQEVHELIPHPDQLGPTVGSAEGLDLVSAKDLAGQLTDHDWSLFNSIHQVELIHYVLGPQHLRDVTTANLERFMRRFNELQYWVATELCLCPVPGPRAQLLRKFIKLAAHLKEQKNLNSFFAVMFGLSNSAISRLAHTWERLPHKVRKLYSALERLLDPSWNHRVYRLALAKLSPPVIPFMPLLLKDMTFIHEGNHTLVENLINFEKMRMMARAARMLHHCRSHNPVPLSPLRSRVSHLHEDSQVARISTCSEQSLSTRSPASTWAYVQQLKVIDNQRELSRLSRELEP

EPAC2 [3] = molecular target: T1, EPAC2; test: cAMP-mediated EPAC2 GEF activity; type: biochemical; details: 25 µM compound in the presence of 25 µM cAMP
EPAC1 [4] = molecular target: T2, EPAC1; test: cAMP-mediated EPAC1 GEF activity; type: biochemical; details: 25 µM compound in the presence of 25 µM cAMP
type I PKA holoenzyme = test: Counter screening assay, type I PKA holoenzyme kinase activity; type: biochemical; details: 25 µM compound, 0.1 mM cAMP
type II PKA holoenzyme = test: Counter screening assay, type II PKA holoenzyme kinase activity; type: biochemical; details: 25 µM compound, 0.1 mM cAMP
HEK293/EPAC2-FL cells = HEK293/EPAC2-FL cells (Homo sapiens, UniProt Q8WZA2); test: FRET-based live-cell assay for EPAC2 activation; details: 10 µM 20i pretreatment, 10 µM 007-AM
[5] = tested on: HEK293 cells stably expressing the PKA sensor AKAR3; test: FRET-based live-cell assay for PKA; details: 10 µM 20i, 10 µM 8-Br-cAMP-AM
HEK293/EPAC1-FL = molecular target: T3, HEK293/EPAC1-FL (Homo sapiens, UniProt O95398); test: FRET-based live-cell assay for EPAC1 activation; details: 10 µM 20i, 10 µM 007-AM
T3 sequence (O95398 1-923): T2 sequence (O95398 1-923)

HEK293/EPAC2-FL cells, sequence (Q8WZA2 whole entry): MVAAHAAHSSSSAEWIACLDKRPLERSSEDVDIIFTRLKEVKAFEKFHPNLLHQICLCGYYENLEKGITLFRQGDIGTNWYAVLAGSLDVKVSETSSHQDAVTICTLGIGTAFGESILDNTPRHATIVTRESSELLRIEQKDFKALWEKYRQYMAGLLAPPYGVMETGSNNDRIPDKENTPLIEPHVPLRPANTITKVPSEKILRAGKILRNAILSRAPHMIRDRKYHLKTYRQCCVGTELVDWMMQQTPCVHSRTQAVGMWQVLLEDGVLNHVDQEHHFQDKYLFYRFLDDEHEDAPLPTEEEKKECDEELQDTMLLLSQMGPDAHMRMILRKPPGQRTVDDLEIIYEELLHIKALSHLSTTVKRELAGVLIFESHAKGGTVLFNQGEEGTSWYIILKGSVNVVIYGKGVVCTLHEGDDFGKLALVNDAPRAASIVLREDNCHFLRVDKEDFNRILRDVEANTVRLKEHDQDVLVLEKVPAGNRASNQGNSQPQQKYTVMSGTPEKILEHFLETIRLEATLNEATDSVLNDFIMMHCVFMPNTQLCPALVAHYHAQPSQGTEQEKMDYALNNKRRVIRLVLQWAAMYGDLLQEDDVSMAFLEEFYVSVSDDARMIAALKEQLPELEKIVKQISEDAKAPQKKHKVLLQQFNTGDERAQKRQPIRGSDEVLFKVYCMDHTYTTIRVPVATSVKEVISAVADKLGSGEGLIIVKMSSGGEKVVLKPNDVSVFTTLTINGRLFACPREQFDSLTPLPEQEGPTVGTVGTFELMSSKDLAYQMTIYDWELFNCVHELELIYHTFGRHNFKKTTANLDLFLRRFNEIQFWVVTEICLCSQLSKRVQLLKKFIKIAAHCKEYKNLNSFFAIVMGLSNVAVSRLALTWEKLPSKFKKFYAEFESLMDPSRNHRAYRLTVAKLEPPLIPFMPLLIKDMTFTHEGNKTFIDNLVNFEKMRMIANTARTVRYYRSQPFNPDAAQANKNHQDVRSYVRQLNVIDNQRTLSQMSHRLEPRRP

Row | Compound | Relative Potency (RA) (EPAC2 [1]) | Selectivity EPAC2 vs EPAC1 of HTS hits (EPAC1 [2]) | Inhibition of EPAC2 GEF activity (EPAC2 [3]) | Inhibition of EPAC1-mediated Rap1-GDP exchange activity (EPAC1 [4]) | Effect on cAMP-induced type I PKA holoenzyme activation (type I PKA holoenzyme) | Effect on cAMP-induced type II PKA holoenzyme activation (type II PKA holoenzyme) | fold more potent than cAMP (EPAC2 [1]; 8-NBD-cAMP competition in binding EPAC2) | Block of 007-AM induced decrease of FRET (EPAC2 activation) (HEK293/EPAC2-FL cells) | Inhibition of 8-Br-cAMP-AM induced PKA activation (AKAR3 FRET) [5] | Block of 007-AM induced decrease of FRET (EPAC1 activation) (HEK293/EPAC1-FL)
1 | Nc1ccc(Nc2ccc(N)cc2S(=O)(=O)O)cc1 [Compound 2] | 2.2 | not exclusively specific for EPAC2 |  |  |  |  |  |  |  | 
2 | Cc1ccc(S(=O)(=O)c2c(C)cc(C)cc2C)cc1 [Compound 1] |  |  | inhibit EPAC2 GEF activity to basal levels | no inhibition; also recorded: not to inhibit | not to significantly alter | not to significantly alter |  |  |  | 
3 | Cc1cc(C)c(Nc2cc(Cl)ccc2Cl)c(C)c1 [Compound 14c, (2,5-Dichlorophenyl)-(2,4,6-trimethylphenyl)amine] | 100 |  | inhibit EPAC2 GEF activity to basal levels | no inhibition; also recorded: not to inhibit | not to significantly alter | not to significantly alter | about 100 fold |  |  | 
4 | Cc1cc(C)c(S(=O)(=O)n2cc(C)cc2C)c(C)c1 [Compound 20i, 2,4-Dimethyl-1-(2,4,6-trimethylbenzenesulfonyl)-1H-pyrrole] |  |  | inhibit EPAC2 GEF activity to basal levels | no inhibition; also recorded: not to inhibit | not to significantly alter | not to significantly alter |  | fully blocked; also recorded: blocked EPAC2 | not inhibited; also recorded: did not affect PKA activation | incapable of blocking; also recorded: not EPAC1 activation
